Active and inactive are the calls of the source.
Assays:
[1] = target: T1, Short transient receptor potential channel 4 (Mus musculus, UniProt Q9QUQ5); experiment: mouse TRPC4 channel activators, dose response, cell-based, HEK293 TRPC4/mu-opioid, Fluo-4 calcium (AID 434937); format: functional
T1 sequence (Q9QUQ5 whole entry): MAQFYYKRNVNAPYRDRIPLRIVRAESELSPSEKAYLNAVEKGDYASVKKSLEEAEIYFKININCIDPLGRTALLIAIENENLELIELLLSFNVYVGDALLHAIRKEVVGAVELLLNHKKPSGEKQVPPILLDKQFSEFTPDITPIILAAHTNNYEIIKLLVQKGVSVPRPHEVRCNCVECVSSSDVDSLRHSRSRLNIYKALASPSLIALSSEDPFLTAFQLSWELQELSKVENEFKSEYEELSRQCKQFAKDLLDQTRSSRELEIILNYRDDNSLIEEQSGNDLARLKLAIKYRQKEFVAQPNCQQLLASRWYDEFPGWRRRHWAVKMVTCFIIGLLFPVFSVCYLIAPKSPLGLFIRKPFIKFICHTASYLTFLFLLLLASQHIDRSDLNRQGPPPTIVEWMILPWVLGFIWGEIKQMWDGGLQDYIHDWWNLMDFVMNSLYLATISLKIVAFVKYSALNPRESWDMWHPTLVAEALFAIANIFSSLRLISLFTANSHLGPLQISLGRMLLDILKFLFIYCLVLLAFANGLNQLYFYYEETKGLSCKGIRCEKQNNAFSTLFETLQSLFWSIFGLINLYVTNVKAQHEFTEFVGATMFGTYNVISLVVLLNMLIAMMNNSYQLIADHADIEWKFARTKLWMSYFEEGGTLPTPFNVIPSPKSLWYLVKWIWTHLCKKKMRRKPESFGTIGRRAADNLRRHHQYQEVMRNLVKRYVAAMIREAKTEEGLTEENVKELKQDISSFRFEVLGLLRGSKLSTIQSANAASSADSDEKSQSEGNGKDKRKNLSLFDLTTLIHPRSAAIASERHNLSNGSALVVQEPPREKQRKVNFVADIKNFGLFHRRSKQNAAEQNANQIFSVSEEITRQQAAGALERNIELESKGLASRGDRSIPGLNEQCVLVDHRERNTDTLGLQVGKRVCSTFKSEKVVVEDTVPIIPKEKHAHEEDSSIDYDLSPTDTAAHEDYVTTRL

[2] = inhibitors of intracellular T. cruzi replication, confirmation, NIH3T3 host cells, beta-gal luminescence (AID 2044); format: functional, cell-based;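 further: intracellular parasites grown in NIH/3T3 mouse fibroblasts as host cells; luminescent beta-galactosidase reporter signal from transgenic T. cruzi replicating inside host cells; inhibitors lower the luminescence signal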
[3] = growth suppression of PTEN-null colon cells, dose response, cell-based, HCT116 PTEN knockout (AID 1047); format: functional;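 further: HCT116 colon tumor cells with PTEN knocked out; cells exposed to compound for 60 hours before readout; potency for loss of cell viability measured by luminescence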
[4] = cytotoxicity toward NIH3T3 fibroblasts, dose response, counter-screen, cell-based, ATP luminescence, mouse fibroblasts (AID 2010); format: functional;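 further: cells exposed to compound for about 90 hours before reading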
[5] = growth suppression of beta-catenin-knockout colon cells, dose response, cell-based, HCT116, human colon tumor (AID 1045); format: functional;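 further: HCT116 colon tumor cells with beta catenin knocked out; cells exposed to compound for 60 hours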
[6] = THP-1 cell cytotoxicity, dose response, cytotoxicity control for non-replicating M. tuberculosis project (AID 489025); format: functional
[7] = HepG2 cell cytotoxicity, dose response, cytotoxicity control for non-replicating M. tuberculosis project (AID 489018); format: functional; conditions: Mycobacterium tuberculosis
[8] = Vero E6 cell cytotoxicity, dose response, cytotoxicity control for non-replicating M. tuberculosis project, secondary assay (AID 492998); format: functional, VeroE6; conditions: Vero C1008
[9] = target: T2, Heat shock factor protein 1 (Mus musculus, UniProt P38532); experiment: HSF1 potentiators in luciferase reporter cells, confirmation, cell-based, NIH3T3, luminescence, dose retest (AID 435004); format: functional;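 further: stress induced by proteasome inhibitor MG132 added 30 min after compound; luciferase reporter driven by HSF1 response element in NIH3T3 cells; actives raise luminescence as potentiators of the MG132 stress response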
T2 sequence (P38532 whole entry): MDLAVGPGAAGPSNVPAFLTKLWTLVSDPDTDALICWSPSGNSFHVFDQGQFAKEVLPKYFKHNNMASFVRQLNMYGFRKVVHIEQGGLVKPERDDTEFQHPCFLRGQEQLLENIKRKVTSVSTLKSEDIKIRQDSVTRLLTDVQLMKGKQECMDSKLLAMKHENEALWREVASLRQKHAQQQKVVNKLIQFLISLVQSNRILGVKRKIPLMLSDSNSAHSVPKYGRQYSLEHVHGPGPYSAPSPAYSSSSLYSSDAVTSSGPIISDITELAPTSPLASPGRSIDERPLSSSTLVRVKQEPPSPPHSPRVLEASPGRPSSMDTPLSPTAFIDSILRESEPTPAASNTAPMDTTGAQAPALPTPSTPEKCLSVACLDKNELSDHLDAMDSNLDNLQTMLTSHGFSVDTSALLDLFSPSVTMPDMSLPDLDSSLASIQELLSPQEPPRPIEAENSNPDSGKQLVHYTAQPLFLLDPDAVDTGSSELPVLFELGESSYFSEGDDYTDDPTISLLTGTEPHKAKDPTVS

[10] = target: T3, Microphthalmia-associated transcription factor (Homo sapiens, UniProt O75030); experiment: TRPM1 promoter luciferase signal decrease, dose response, MITF inhibitor project, cell-based, SK-MEL-5, cherry-picked, set 3 (AID 493073); format: functional
T3 sequence (O75030 whole entry): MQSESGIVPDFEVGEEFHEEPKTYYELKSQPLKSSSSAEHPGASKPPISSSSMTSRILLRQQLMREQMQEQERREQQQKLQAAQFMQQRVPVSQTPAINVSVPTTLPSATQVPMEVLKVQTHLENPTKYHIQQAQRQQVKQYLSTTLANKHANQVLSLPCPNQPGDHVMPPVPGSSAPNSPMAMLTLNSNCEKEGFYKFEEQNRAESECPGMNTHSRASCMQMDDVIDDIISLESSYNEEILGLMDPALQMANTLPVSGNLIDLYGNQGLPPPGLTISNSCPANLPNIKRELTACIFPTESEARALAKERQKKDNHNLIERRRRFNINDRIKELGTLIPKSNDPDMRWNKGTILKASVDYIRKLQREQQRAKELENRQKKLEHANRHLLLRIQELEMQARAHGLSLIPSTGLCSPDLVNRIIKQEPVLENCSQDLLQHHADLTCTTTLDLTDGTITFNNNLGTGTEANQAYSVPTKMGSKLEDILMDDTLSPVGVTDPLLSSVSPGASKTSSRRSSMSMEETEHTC

cells = format: functional
[11] = target: T4, Corticotropin-releasing factor receptor 2/Corticotropin-releasing factor-binding protein (Homo sapiens, UniProt P24387+Q13324); experiment: Dose Response confirmation of uHTS hits for small molecule antagonists of the CRF-binding protein and CRF-R2 receptor complex.; format: functional; conditions: read-out: IC50_Mean
T4 sequence (Q13324 whole entry): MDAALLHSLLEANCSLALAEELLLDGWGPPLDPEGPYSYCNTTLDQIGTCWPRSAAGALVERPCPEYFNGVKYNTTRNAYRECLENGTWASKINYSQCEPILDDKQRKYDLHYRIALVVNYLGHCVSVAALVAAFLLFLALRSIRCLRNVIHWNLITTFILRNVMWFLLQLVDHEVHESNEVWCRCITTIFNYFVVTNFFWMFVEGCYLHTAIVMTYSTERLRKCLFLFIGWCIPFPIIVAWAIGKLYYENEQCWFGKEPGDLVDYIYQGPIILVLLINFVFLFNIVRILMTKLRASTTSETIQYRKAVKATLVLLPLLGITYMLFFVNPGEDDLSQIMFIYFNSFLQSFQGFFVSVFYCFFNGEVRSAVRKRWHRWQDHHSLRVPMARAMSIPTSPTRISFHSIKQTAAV
T4 sequence (P24387 whole entry): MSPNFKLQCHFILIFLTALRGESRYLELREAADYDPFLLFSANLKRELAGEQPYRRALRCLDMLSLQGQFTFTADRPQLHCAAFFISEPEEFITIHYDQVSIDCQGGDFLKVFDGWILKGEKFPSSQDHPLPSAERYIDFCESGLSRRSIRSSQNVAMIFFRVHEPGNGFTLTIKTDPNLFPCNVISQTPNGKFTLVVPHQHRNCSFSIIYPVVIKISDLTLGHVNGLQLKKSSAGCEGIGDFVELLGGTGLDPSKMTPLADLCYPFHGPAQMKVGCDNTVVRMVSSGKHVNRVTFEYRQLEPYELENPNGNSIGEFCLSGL

[12] = target: T4, Corticotropin-releasing factor receptor 2/Corticotropin-releasing factor-binding protein; experiment: activators of CRF receptor 2 with binding protein – uHTS hits, confirmation (AID 602473); format: functional; conditions: read-out: EC50_Mean
[13] = CRF-BP/CRF-R2 complex antagonists, dose response, cell-based, uHTS hits, 384-well (AID 651639); format: functional, Homo sapiens; conditions: read-out: IC50_Mean
[14] = target: T5, High affinity choline transporter 1 (Homo sapiens, UniProt Q9GZV3); experiment: CHT inhibitors, dose response, cell-based, 5-point CRC, membrane potential dye (AID 504840); format: functional
T5 sequence (Q9GZV3 whole entry): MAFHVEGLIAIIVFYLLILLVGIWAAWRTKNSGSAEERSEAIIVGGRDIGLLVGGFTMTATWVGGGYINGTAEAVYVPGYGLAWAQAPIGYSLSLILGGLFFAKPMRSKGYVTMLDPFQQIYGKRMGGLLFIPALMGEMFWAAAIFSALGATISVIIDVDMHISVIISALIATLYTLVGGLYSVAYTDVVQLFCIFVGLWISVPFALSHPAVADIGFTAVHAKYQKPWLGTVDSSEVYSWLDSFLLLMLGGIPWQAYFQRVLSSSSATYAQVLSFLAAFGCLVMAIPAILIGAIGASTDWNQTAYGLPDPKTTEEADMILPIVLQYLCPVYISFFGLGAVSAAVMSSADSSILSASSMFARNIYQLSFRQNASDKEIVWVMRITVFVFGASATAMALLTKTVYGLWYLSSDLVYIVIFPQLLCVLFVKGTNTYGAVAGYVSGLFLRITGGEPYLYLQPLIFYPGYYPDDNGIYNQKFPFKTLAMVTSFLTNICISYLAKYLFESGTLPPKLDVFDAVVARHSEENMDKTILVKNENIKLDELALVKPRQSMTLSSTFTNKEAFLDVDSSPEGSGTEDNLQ

Which EC50 [1] does the source give for `CC1CC(C)CN(CCCNC(=O)c2nn(C)c3c2CS(=O)(=O)c2ccccc2-3)C1` (stereo unspecified) here?
The EC50 was 0.237 µM (active).

What does the source list for `O=[N+]([O-])c1ccc(-n2nnnc2-c2ccccc2)c([N+](=O)[O-])c1`?
EC50 [2]: 1.75 µM (active); EC50 [3]: 4.92 µM (active); EC50 [4]: > 60 µM (not active); EC50 [5]: 5.3 µM (active); CC50 [6]: 19.6 µM (active); CC50 [7]: 19.2 µM (active); CC50 [8]: 8.41 µM (active); EC50 [9]: 9.09 µM (active); AC50 [10]: 7.37 µM (active); IC50 (cells): 5.22 µM (active)

Which results are given for `COc1ccc(Oc2ccc(C(F)(F)F)cc2NC(=O)c2ccc(OC)cc2)cc1`?
IC50 [11]: < 0.368 µM (active); EC50 [12]: > 53 µM (inactive); IC50 [13]: 7.95 µM (active)

Which IC50 [14] does the source give for `Cc1ccc(NC(=O)c2ccc(CN3CC(=O)N4CCCCC4C3=O)cc2)c(C)c1` (stereo unspecified) here?
Its IC50 is 4.47 µM (active).

With `COc1ccc(-n2c3c(cc(C(=O)NNc4ccccc4)c2=O)C(=O)CC(C)(C)C3)cc1` as the molecule, how does the EC50 [1] read?
The EC50 was 1.06 µM (active).
